Patent US5985926A, “Method for inhibiting intracellular viral replication” (Cell Therapeutics, Inc., priority 1997, dated 1999)
pIC50: −log10 of the molar value. Entries after “also recorded” stand apart in the source; their conditions may differ.

Key:
[1] = test system: CMV promoter in 293-EBNA cells; assay: AP reporter gene expression from CMV promoter, 293-EBNA cells stably transfected with pCMV.AP; assay type: cell-based, human cytomegalovirus; human cells
Procedure, shortened: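 293-EBNA cells carrying episomal pCMV.AP, expressing secreted placental alkaline phosphatase from the CMV enhancer/promoter, treated with various compound concentrations. Reporter expression read as change in A405 of conditioned medium with substrate such as ortho-nitrophenol phosphate.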

[2] = test system: HIV-1 strain JR-CSF in PBL; assay: HIV-1 p24 antigen expression in acutely infected peripheral blood lymphocytes (PBL); assay type: cell-based, HIV-1; human cells; conditions: Human immunodeficiency virus 1, Lymphocyte, clinical isolate
Method: FIG. 17 illustrates a dose response curves of CT2576 on constitutive, TNF-α, and IL-6-mediated expression of HIV-1 in a chronically infected U1 cell line (left Y-axis) and of CT3537 on HIV expression in PBL acutely infected with the JR-CSF primary isolate (right Y-axis). U1 cells were incubated for four days after the addition of CT2576 with or without TNF-α (20 pg/ml) or IL-6 (1 ng/ml). PBL were inoculated with HIV at 10 ng virus/10^6 cells/well and incubated with various concentrations of CT3537 for 7 days. Each data point represents the average expression levels of HIV-1 p24-antigen in the cell supernatants measured by ELISA from triplicate samples with error bar indicating the SD.
Stable cell lines 293tar, 293tat and 293tat2 were generated by transfections using conditions described in (Tate et al., FASEB J. 4:227-231, 1990) with the plasmid pHIV.AP alone or along with either pHIV.tat or pSV2tat72, respectively. The assay of HIV-1 p24 antigen expression in the chronically HIV-1-infected promonocytic line U1 after 4 days and in acutely infected peripheral blood lymphocytes (PBL) after 7 days were described (Peterson et al., J. Clin. Invest. 89:574-580, 1992, and Brighty et al., Proc Natl. Acad. Sci. USA 88:7802-7805, 1991). […]

AP mRNA in 293tat cells = assay: AP mRNA level in 293tat cells, Northern blot; assay type: cell-based, human; conditions: with TNF-α or IL-1β
Method: Nuclear extracts (A) from 293tat cells were tested by EMSA for activation of NFκB. A radiolabeled 40-mer covering the NFκB sequences in the HIV promoter was used as a probe. Cells were incubated with CT2576 at 12 μM, human TNF-α at 40 ng/ml or IL-1β at 1 ng/ml, or pre-incubated for 30 min. with CT2576 and then stimulated with TNF-α or IL-1β for 18 hr prior to making extracts. RNA was extracted from 293tat cells (B) after treatment with CT2576 without or with TNF-α or IL-1β for 18 hr. Northern blots analysis were performed using probes derived from AP cDNA and G3PDH cDNA as a control for normalization of mRNA level. AP activity was determined in cell supernatants from the various samples.
NFκB binding activity in nuclear extracts (Dignam et al., Nucleic Acids Res. 11:1475-1489, 1983) of cells was measured by electrophoretic mobility-shift assay (EMSA) (Carthew et al., Cell 43:439-448, 1985) using 5'-labeled double-stranded synthetic DNA with two NF-κB motifs. Northern blot analysis was performed with total RNA run on 1% agarose/formaldehyde gel and probed with ^32 P-labeled cDNA of AP and glyceraldehyde-3-phosphate dehydrogenase (G3PDH).

[3] = test system: phosphatidic acid (PA) subspecies in 293tat cells; assay: PA composition of 293tat cells by HPLC; assay type: cell-based, human
Method: One must first quantitatively and qualitatively separate PAs from the other lipids found in serum by a chemical extraction of lipids and high performance liquid chromatography (HPLC) to separate and detect PAs. […] Briefly, the method of Bligh et al. involves an organic extraction of lipids from biological tissue homogenates or fluids. One volume of sample and three volumes of methanol:chloroform (2:1) are vigorously shaken for 2 min. One volume of chloroform is added and then shaken vigorously for 30 sec. One volume of water is added and then shaken vigorously for 30 sec. The mixture is filtered and the upper aqueous layer is discarded. The lower organic layer contains a mixture of lipid classes. The method of Folch et al. involves the extraction of lipids from biological tissue homogenates or body fluids. One volume of sample plus 20 volumes of chloroform:methanol (2:1) are vigorously shaken for 2 min. The mixture is filtered and an amount of 0.1 N KCl equal to 20% of the extraction mixture volume is added and the mixture is shaken vigorously for 2 min. The aqueous and organic phases are allowed to separate. The upper aqueous layer is discarded. The lower organic layer contains a mixture of lipid classes. […] This method involves separation of lipids into their major classes by normal phase (silica) high performance liquid chromatography (HPLC). A 5 micron, 25 cm×0.45 cm silica HPLC column is connected to a binary solvent delivery system followed with a UV detector. The lipid sample is injected on the column and a solvent gradient is run at 1.0 ml/min. The solvent gradient is hexane:isopropanol:water in the proportions 3:4:0.75 run isocratically for 3 min, then ramped to hexane:isopropanol:water in the proportions 3:4:1.4 in 15 min, then run isocratically at the same proportions for 15 min. Detection is at 206 nm.
One of the steps after cell activation involves the hydrolysis of phosphatidylcholine (PC), the major phospholipid of cellular membranes, by phospholipases C and D, leading to the generation of second messengers, such as PA and DG, in the signal transduction cascade.

Structure (SMILES)	pIC50 ([1]; Homo sapiens, 293-EBNA, FIG. 8, read-out: concentration inhibiting AP activity by 50% (CMV assay))	inhibition of AP expression (CMV promoter) ([1]; in words)	pIC50 [2]	AP transcript / mRNA steady-state level (AP mRNA in 293tat cells)	effect on generation of myrPA species / turnover of PA subspecies [3]	long chain unsaturated PA, share of far UV absorbing lipids after preincubation ([3]; 8 μM CT2576)	long chain unsaturated PA, share of far UV absorbing lipids after 2 minutes TNF-α ([3]; 8 μM CT2576, 2 minutes of TNF-α)	short chained saturated PA subspecies ([3]; preincubation with 8 μM CT2576)
CCCCCCCCNCC(O)CCCCCCCCCN1C(=O)CCN(C)C1=O (centres unmarked) [CT1829, 3-(11-octylamino-10-hydroxyundecyl)-1-methyldihydrouracil]	5.22 to 5.70	inhibit CMV promoter driven expression	–	–	–	–	–	–
CCCCCCCCNCC(O)CCCCCCCCCn1c(=O)c2c(ncn2C)n(C)c1=O (centres unmarked) [CT2576, 1-(11-octylamino-10-hydroxyundecyl)-3,7-dimethylxanthine]	–	–	~6.00	increase in mRNA level; also recorded: did not block expression at the transcription stage	affected the turnover of PA subspecies; also recorded: affects the generation of myrPA species	15%	20%	less after CT2576 preincubation than without treatment; also recorded: very little change with addition of TNF-α
